# Measurements reported in ChEMBL document CHEMBL5625249, “Optimization and antifungal activity of quinoline derivatives linked to chalcone moiety combined with FLC against Candida albicans” (Eur J Med Chem, 2023).
# Active and inactive are the calls of the source. The rule behind the calls is not given here.
# Experiments:
# Candida albicans [1] = test: Synergistic antifungal activity against clinical FLC-resistant Candida albicans 381 measured after 24 hrs by microdilution method; assay type: functional
# Candida albicans [2] = test: In vivo antifungal activity against FLC-resistant Candida albicans ATCC 14053 infected in Balb/c mouse assessed as survival rate at 7.5 to 15 mg/kg, ig measured daily for 6 days in presence of fluconazole (Rvb < 20%); assay type: functional; conditions: dose 7.5-15 mg/kg, time 6 day
# Candida albicans [3] = test: In vivo antifungal activity against FLC-resistant Candida albicans ATCC 14053 infected in Balb/c mouse assessed as reduction in renal injury at 15 mg/kg, ig measured after 6 days by H and E staining based histopathological analysis; assay type: functional, organism-based; conditions: time 6.0 day
# Candida albicans [4] = test: In vivo antifungal activity against FLC-resistant Candida albicans ATCC 14053 infected in Balb/c mouse assessed as reduction in infiltration of inflammatory cells at 15 mg/kg, ig measured after 6 days by H and E staining based histopathological analysis; assay type: functional, organism-based; conditions: time 6.0 day
# Candida albicans [5] = test: Antifungal activity against clinical FLC-resistant Candida albicans 602 measured after 24 hrs by microdilution method; assay type: functional
# Candida albicans [6] = test: Synergistic antifungal activity against FLC-resistant Candida albicans ATCC 10231 measured after 24 hrs by microdilution method; assay type: functional
# Candida albicans [7] = test: Antifungal activity against FLC-resistant Candida albicans ATCC 14053 cultured in SD +10% FBS liquid medium assessed as inhibition of hyphal formation at 1 ug/ml measured after 2 hrs by inverted microscopy; assay type: functional, organism-based; conditions: dose 1.0 µg/ml
# Candida albicans [8] = test: Synergistic antifungal activity against FLC-resistant Candida albicans ATCC 14053 cultured in SD +10% FBS liquid medium assessed as inhibition of hyphal formation at 1 ug/ml measured after 4 to 8 hrs in presence of fluconazole and dibutyryl-cAMP by inverted microscopy; assay type: functional, organism-based; conditions: dose 1.0 µg/ml, time 4-8 hrs
# Candida albicans [9] = test: In vivo antifungal activity against FLC-resistant Candida albicans ATCC 14053 infected in Balb/c mouse assessed as restoration of normal lung morphology at 15 mg/kg, ig measured after 6 days by H and E staining based histopathological analysis; assay type: functional, organism-based; conditions: time 6.0 day
# Candida albicans [10] = test: Antifungal activity against clinical FLC-resistant Candida albicans 4574 measured after 24 hrs by microdilution method; assay type: functional
# Candida albicans [11] = test: Antifungal activity against FLC-resistant Candida albicans ATCC 14053 measured after 24 hrs by microdilution method; assay type: functional
# Candida albicans [12] = test: Synergistic antifungal activity against clinical FLC-resistant Candida albicans 800 assessed as fractional inhibitory concentration index measured after 24 hrs by microdilution method; assay type: functional
# Candida albicans [13] = test: In vivo antifungal activity against FLC-resistant Candida albicans ATCC 14053 infected in Balb/c mouse assessed as restoration of kidney morphology at 7.5 to 15 mg/kg, ig measured after 6 days in presence of fluconazole by H and E staining based histopathological analysis; assay type: functional, organism-based; conditions: dose 7.5-15 mg/kg, time 6.0 day
# Candida albicans [14] = test: Synergistic antifungal activity against FLC-sensitive Candida albicans SC5314 measured after 24 hrs in presence of fluconazole by microdilution method; assay type: functional
# [15] = Toxicity in Balb/c mouse infected with FLC-resistant Candida albicans ATCC 14053 assessed as weight loss at 7.5 to 15 mg/kg, ig measured daily for 6 days in presence of fluconazole; assay type: organism-based; conditions: in vivo, po, 144 h, dose 7.5-15 mg/kg, time 6 day
# Candida albicans [16] = test: Synergistic antifungal activity against clinical FLC-resistant Candida albicans 602 assessed as fractional inhibitory concentration index measured after 24 hrs by microdilution method; assay type: functional
# Candida albicans [17] = test: Synergistic antifungal activity against clinical FLC-resistant Candida albicans 4508 measured after 24 hrs by microdilution method; assay type: functional
# Candida albicans [18] = test: In vivo antifungal activity against FLC-resistant Candida albicans ATCC 14053 infected in Balb/c mouse assessed as reduction in severity of lesions in kidney at 15 mg/kg, ig measured after 6 days by H and E staining based histopathological analysis; assay type: functional, organism-based; conditions: time 6.0 day
# Candida albicans [19] = test: Synergistic antifungal activity against clinical FLC-resistant Candida albicans 4574 measured after 24 hrs by microdilution method; assay type: functional
# Candida albicans [20] = test: Antifungal activity against clinical FLC-resistant Candida albicans 808 measured after 24 hrs by microdilution method; assay type: functional
# Candida albicans [21] = test: Synergistic antifungal activity against FLC-resistant Candida albicans ATCC 14053 assessed as inhibition of hyphal formation by measuring down regulation of ALS3 gene expression at 1 ug/ml measured after 16 to 18 hrs in presence of fluconazole by qRT-PCR analysis; assay type: functional, organism-based; conditions: dose 1.0 µg/ml, time 16-18 hrs
# Candida albicans [22] = test: Synergistic antifungal activity against clinical FLC-resistant Candida albicans 602 measured after 24 hrs by microdilution method; assay type: functional
# Candida albicans [23] = test: Synergistic antifungal activity against clinical FLC-resistant Candida albicans 381 assessed as fractional inhibitory concentration index measured after 24 hrs by microdilution method; assay type: functional
# Candida albicans [24] = test: Antifungal activity against FLC-resistant Candida albicans ATCC 14053 at 1 ug/mL measured over 48 hrs by time-killing assay; assay type: functional, organism-based; conditions: dose 1.0 µg/ml
# Candida albicans [25] = test: Synergistic antifungal activity against FLC-resistant Candida albicans ATCC 14053 cultured in SD +10% FBS liquid medium assessed as inhibition of hyphal formation at 1 ug/ml measured after 4 to 8 hrs in presence of fluconazole by inverted microscopy; assay type: functional, organism-based; conditions: dose 1.0 µg/ml, time 4-8 hrs
# Candida albicans [26] = test: Antifungal activity against FLC-resistant Candida albicans ATCC 14053 cultured in spider medium assessed as inhibition of hyphal formation at 1 ug/ml measured after 2 hrs by inverted microscopy; assay type: functional, organism-based; conditions: dose 1.0 µg/ml
# Candida albicans [27] = test: Antifungal activity against FLC-resistant Candida albicans ATCC 10231 measured after 24 hrs by microdilution method; assay type: functional
# Candida albicans [28] = test: Induction of reactive oxygen species production in FLC-resistant Candida albicans ATCC 14053 at 1 ug/mL measured after 16 to 18 hrs in presence of fluconazole by DCFH-DA staining based fluorescence assay; assay type: functional, organism-based; conditions: dose 1.0 µg/ml, time 16-18 hrs
# Candida albicans [29] = test: Synergistic antifungal activity against clinical FLC-resistant Candida albicans 3511 measured after 24 hrs by microdilution method; assay type: functional
# Candida albicans [30] = test: Synergistic antifungal activity against FLC-resistant Candida albicans ATCC 14053 cultured in spider medium assessed as inhibition of hyphal formation at 1 ug/ml measured after 2 hrs in presence of fluconazole by inverted microscopy; assay type: functional, organism-based; conditions: dose 1.0 µg/ml
# [31] = Toxicity in Balb/c mouse infected with FLC-resistant Candida albicans ATCC 14053 assessed as weight loss at 15 mg/kg, ig measured daily for 6 days; assay type: organism-based; conditions: in vivo, po, 144 h, time 6 day
# Candida albicans [32] = test: In vivo antifungal activity against FLC-resistant Candida albicans ATCC 14053 infected in Balb/c mouse assessed as reduction in liver fungal load at 7.5 to 15 mg/kg, ig measured after 6 days in presence of fluconazole; assay type: functional, organism-based; conditions: dose 7.5-15 mg/kg, time 6.0 day
# Candida albicans [33] = test: Synergistic antifungal activity against clinical FLC-resistant Candida albicans 4574 assessed as fractional inhibitory concentration index measured after 24 hrs by microdilution method; assay type: functional
# Candida albicans [34] = test: Antifungal activity against clinical FLC-resistant Candida albicans 4508 measured after 24 hrs by microdilution method; assay type: functional
# [35] = Toxicity in Balb/c mouse assessed as death at 7.5 to 15 mg/kg, ig measured daily for 6 days in presence of fluconazole; assay type: organism-based; conditions: in vivo, po, 144 h, dose 7.5-15 mg/kg, time 6 day
# Candida albicans [36] = test: In vivo antifungal activity against FLC-resistant Candida albicans ATCC 14053 infected in Balb/c mouse assessed as reduction in liver fungal load at 15 mg/kg, ig measured after 6 days; assay type: functional, organism-based; conditions: time 6.0 day
compound,measurement,setting,value
CN1CCN(c2nc3ccccc3cc2/C=C/C(=O)c2ccc(N3CCN(Cc4ccc(C(F)(F)F)cc4)CC3)cc2)CC1,MIC80,Candida albicans [1],1.35 µg/mL
same,Survival,Candida albicans [2],90%
same,Activity,Candida albicans [3],inactive
same,Activity,Candida albicans [4],inactive
same,MIC80,Candida albicans [5],> 40 µg/mL
same,MIC80,Candida albicans [6],5.58 µg/mL
same,inhibition,Candida albicans [7],inactive
same,inhibition,Candida albicans [8],inactive
same,Activity,Candida albicans [9],inactive
same,MIC80,Candida albicans [10],> 40 µg/mL
same,MIC80,Candida albicans [11],> 40 µg/mL
same,fractional inhibitory concentration index (FICI),Candida albicans [12],0.03
same,Activity,Candida albicans [13],Active
same,MIC80,Candida albicans [14],0.99 µg/mL
same,Activity,[15],Non-Toxic
same,fractional inhibitory concentration index (FICI),Candida albicans [16],0.14
same,MIC80,Candida albicans [17],1.22 µg/mL
same,Activity,Candida albicans [18],inactive
same,MIC80,Candida albicans [19],0.91 µg/mL
same,MIC80,Candida albicans [20],> 40 µg/mL
same,inhibition,Candida albicans [21],Active
same,MIC80,Candida albicans [22],5.67 µg/mL
same,fractional inhibitory concentration index (FICI),Candida albicans [23],0.03
same,Activity,Candida albicans [24],inactive
same,inhibition,Candida albicans [25],Active
same,inhibition,Candida albicans [26],inactive
same,MIC80,Candida albicans [27],> 40 µg/mL
same,Activity,Candida albicans [28],Active
same,MIC80,Candida albicans [29],5.89 µg/mL
same,inhibition,Candida albicans [30],inactive
same,Activity,[31],Toxic
same,Activity,Candida albicans [32],inactive
same,fractional inhibitory concentration index (FICI),Candida albicans [33],0.02
same,MIC80,Candida albicans [34],> 40 µg/mL
same,Activity,[35],Non-Toxic
same,Activity,Candida albicans [36],inactive
